pEC50, pIC50: −log10 of the molar value. Each block holds one compound with its values, some of them ahead of it. Activity calls are given as the source filed them. The rule behind the calls is not given here.
Columns and labels:
CYP2C8 = target: T1, CYP2C8 (Homo sapiens, UniProt P10632); assay: Inhibition of CYP2C8 in human liver microsomes at 10 uM in presence of NADPH relative to control
T1 sequence (P10632 whole entry): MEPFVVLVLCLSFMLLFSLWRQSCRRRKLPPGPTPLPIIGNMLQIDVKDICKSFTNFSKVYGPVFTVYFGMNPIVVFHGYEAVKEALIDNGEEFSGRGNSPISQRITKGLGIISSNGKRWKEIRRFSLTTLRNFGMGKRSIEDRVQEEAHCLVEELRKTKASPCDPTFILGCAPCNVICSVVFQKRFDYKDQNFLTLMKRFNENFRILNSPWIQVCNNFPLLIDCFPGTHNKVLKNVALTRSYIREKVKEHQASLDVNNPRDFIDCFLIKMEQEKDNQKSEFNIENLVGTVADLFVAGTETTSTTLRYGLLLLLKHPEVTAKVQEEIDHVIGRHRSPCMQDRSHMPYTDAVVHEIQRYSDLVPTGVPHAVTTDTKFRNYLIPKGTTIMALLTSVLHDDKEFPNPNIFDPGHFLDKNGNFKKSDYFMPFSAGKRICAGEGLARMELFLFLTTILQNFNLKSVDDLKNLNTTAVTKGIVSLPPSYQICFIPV

CYP2C9 = CYP2C9 (Homo sapiens, UniProt P11712); assay: Inhibition of CYP2C9 in human liver microsomes at 10 uM in presence of NADPH relative to control
Sequence of CYP2C9 (P11712 whole entry): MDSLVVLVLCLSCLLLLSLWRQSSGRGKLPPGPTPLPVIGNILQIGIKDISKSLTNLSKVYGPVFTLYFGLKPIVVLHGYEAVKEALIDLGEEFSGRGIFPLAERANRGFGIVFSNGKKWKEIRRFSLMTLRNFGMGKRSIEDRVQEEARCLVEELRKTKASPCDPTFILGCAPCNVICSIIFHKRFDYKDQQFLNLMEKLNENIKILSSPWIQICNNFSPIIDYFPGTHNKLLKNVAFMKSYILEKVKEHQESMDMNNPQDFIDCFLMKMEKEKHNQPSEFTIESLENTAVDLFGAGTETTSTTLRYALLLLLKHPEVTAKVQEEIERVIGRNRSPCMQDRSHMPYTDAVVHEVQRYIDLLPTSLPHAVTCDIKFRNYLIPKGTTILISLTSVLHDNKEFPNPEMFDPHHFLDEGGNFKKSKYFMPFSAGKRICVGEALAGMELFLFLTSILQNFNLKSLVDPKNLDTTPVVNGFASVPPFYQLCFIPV

[1] = Apparent permeability of the compound from apical to basolateral side in human Caco-2 cells incubated for 1 hr
[2] = Plasma protein binding in Sprague-Dawley rat at 2 uM incubated for 4 hrs by rapid equilibrium dialysis
[3] = Plasma protein binding in human at 2 uM incubated for 4 hrs by rapid equilibrium dialysis
in vitro [4] = settings: mouse, cryopreserved hepatocytes
in vitro [5] = settings: rat, cryopreserved hepatocytes
in vitro [6] = settings: human, cryopreserved hepatocytes
[7] = target: T2, UDP-glucuronosyltransferase 1A1 (Homo sapiens, UniProt P22309); assay: Inhibition of human recombinant UGT1A1 in presence of UDPGA cofactor
T2 sequence (P22309 whole entry): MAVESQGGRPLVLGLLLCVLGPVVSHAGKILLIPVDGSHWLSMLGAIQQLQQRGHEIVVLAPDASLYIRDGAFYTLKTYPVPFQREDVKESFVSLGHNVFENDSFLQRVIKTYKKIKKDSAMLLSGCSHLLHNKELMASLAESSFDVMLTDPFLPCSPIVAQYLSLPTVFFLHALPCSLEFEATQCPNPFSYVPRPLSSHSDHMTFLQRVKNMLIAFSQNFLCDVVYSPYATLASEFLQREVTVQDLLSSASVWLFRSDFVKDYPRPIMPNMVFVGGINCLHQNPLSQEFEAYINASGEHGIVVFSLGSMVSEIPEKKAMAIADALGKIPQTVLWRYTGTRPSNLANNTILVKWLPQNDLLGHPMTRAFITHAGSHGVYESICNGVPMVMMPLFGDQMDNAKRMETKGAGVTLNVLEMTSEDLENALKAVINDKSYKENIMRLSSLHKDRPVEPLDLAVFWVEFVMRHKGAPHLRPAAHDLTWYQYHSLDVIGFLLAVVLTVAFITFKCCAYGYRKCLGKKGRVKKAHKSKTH

[8] = target: T3, Solute carrier organic anion transporter family member 1B1 (Homo sapiens, UniProt Q9Y6L6); assay: Inhibition of OATP1B1 (unknown origin) stably transfected in HEK293 cells at 1 to 100 uM; type: cell-based
T3 sequence (Q9Y6L6 whole entry): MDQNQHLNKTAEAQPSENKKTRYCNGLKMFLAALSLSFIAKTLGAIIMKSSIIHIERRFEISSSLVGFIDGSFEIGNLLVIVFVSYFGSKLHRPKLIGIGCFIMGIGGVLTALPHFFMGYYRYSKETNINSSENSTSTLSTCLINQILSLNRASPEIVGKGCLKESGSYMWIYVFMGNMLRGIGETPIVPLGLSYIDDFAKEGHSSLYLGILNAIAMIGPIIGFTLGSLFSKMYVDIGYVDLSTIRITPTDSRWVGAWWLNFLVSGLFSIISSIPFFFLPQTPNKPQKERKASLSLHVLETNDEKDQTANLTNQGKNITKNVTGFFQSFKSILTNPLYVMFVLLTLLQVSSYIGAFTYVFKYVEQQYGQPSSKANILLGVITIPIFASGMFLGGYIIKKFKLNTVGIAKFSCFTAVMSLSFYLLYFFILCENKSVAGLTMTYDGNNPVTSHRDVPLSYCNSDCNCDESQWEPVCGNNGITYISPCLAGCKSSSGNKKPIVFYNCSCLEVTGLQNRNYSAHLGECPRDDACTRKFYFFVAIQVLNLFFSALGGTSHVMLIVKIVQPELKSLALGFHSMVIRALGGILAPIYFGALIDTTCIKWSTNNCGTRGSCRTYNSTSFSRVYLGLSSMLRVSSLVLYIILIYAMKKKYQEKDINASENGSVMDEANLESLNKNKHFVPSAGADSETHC

[9] = target: Sodium channel protein type 5 subunit alpha (Homo sapiens, UniProt Q14524); assay: Inhibition of Nav1.5 (unknown origin)
Sequence of Sodium channel protein type 5 subunit alpha (Q14524 whole entry): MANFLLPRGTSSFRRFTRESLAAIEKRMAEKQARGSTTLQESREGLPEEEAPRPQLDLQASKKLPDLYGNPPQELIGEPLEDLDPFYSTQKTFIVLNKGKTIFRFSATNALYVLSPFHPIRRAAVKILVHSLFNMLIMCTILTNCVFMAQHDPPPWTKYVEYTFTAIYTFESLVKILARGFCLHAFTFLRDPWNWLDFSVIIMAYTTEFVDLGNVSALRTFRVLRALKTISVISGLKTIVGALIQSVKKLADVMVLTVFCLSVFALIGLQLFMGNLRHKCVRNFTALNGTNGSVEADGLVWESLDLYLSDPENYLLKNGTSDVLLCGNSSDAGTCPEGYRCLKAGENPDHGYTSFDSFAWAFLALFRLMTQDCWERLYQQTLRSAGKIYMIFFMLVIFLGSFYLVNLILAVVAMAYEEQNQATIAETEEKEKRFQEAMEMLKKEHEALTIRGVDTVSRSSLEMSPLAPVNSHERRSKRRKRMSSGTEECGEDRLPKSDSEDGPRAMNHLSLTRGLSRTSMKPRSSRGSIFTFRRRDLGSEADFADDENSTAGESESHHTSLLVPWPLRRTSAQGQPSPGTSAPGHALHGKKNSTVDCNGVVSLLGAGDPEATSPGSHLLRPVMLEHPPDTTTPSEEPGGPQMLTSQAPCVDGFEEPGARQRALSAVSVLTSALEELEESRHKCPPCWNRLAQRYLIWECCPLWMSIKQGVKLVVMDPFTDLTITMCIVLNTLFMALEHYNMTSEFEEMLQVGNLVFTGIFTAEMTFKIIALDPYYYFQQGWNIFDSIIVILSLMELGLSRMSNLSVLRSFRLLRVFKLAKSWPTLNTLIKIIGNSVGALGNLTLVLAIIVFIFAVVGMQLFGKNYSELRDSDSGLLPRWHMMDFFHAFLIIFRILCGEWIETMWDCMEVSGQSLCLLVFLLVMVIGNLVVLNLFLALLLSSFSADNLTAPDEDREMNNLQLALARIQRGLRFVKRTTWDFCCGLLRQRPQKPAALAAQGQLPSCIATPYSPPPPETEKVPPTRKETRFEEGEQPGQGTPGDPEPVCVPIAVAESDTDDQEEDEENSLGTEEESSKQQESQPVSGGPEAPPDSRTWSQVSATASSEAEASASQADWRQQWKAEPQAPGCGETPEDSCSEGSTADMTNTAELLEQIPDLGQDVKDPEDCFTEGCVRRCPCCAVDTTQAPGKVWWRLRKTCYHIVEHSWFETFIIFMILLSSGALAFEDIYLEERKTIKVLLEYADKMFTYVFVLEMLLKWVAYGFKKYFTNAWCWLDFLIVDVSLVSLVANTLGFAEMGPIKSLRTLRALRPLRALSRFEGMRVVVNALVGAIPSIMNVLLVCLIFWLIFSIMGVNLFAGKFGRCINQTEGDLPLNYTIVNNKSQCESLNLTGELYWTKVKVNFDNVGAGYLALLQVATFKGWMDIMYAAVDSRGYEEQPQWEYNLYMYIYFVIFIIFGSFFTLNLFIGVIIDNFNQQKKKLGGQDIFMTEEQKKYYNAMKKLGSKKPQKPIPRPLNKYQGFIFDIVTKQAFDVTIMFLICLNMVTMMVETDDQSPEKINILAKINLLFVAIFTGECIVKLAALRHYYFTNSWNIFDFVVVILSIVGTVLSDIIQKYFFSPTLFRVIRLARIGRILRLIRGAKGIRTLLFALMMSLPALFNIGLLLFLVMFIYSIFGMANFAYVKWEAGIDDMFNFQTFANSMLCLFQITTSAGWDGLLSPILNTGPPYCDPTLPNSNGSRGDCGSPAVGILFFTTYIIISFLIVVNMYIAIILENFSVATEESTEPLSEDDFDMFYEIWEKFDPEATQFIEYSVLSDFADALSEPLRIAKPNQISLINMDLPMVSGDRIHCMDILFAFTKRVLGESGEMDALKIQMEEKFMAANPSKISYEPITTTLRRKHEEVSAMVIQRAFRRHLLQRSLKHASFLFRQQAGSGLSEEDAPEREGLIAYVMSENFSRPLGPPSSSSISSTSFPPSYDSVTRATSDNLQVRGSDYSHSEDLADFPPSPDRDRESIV

[10] = target: Voltage-dependent L-type calcium channel subunit alpha-1C (Homo sapiens, UniProt Q13936); assay: Inhibition of CaV1.2 (unknown origin)
Sequence of Voltage-dependent L-type calcium channel subunit alpha-1C (Q13936 whole entry): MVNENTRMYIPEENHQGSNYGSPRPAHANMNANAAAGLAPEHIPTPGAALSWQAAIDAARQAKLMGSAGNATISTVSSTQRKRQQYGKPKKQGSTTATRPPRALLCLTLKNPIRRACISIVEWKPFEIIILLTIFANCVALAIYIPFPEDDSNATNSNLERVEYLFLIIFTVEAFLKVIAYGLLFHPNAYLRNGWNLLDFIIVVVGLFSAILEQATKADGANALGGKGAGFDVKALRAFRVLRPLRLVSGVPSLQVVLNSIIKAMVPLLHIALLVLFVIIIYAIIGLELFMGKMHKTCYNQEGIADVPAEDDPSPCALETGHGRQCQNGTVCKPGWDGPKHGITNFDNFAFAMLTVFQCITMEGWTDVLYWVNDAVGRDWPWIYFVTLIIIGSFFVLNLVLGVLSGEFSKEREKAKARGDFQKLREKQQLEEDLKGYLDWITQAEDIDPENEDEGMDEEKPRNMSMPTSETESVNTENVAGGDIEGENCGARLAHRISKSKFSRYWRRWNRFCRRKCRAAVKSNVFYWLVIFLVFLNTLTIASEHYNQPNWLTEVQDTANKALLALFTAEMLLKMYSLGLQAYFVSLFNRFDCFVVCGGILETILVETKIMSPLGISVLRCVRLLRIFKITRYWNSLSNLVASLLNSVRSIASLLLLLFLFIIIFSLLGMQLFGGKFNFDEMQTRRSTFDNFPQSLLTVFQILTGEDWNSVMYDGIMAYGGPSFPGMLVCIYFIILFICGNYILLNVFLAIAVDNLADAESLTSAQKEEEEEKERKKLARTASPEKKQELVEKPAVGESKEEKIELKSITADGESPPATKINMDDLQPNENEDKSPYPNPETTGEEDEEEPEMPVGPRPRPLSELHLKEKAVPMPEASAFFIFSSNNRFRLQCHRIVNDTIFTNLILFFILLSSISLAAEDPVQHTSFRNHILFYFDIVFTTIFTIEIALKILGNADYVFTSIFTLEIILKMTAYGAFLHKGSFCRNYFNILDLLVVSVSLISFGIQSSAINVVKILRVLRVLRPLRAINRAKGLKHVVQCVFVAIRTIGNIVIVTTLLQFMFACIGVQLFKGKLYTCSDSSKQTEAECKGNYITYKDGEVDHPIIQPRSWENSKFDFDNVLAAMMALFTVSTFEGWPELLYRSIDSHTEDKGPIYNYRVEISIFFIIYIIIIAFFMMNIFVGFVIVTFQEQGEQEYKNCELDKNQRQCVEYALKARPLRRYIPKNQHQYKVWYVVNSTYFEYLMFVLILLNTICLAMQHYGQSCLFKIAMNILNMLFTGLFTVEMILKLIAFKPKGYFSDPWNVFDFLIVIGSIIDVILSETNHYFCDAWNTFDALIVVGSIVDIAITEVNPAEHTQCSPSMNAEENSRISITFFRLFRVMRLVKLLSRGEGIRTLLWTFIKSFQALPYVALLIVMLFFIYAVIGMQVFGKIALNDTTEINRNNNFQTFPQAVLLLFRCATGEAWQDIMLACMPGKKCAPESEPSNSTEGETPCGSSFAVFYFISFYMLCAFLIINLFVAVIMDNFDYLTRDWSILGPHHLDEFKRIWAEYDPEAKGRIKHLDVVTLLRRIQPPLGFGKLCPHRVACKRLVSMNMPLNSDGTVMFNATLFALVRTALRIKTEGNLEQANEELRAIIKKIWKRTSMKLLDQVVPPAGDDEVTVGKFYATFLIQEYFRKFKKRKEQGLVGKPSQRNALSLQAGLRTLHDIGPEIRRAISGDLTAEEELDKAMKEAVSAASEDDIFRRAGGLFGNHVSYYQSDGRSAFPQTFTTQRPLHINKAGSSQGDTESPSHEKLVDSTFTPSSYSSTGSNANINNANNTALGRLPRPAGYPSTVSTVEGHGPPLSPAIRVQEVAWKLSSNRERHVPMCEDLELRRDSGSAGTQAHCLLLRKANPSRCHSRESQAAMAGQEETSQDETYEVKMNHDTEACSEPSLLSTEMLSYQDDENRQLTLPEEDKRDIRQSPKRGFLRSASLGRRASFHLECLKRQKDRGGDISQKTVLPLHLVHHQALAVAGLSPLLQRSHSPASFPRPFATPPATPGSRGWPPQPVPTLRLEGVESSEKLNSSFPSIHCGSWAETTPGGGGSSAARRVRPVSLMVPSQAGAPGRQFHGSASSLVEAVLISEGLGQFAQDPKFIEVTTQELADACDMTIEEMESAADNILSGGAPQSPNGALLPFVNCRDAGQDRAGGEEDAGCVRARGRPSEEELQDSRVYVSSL

[11] = Effect on CPT1A gene expression in human Huh-7 cells measured for 24 hrs; settings: Huh-7, 24 h
[12] = Plasma protein binding in Beagle dog at 2 uM incubated for 4 hrs by rapid equilibrium dialysis
[13] = Plasma protein binding in cynomolgus monkey at 2 uM incubated for 4 hrs by rapid equilibrium dialysis
[14] = Ratio AUC in mouse liver to plasma; settings: other tissue
[15] = Ratio AUC in rat liver to plasma; settings: other tissue
Rattus norvegicus [16] = assay: Antihypercholesterolemic activity against high fat diet-induced po dosed Sprague-Dawley rat model assessed as reduction in TC level measured after 24 hrs post dose; type: functional, organism-based; settings: dose 0.15-5 mg/kg
Rattus norvegicus [17] = species: Rattus norvegicus; assay: Antihypercholesterolemic activity against high fat diet-induced Sprague-Dawley rat model assessed as minimum effective dose measured after 24 hrs post dose; type: functional; settings: read-out: MED
[18] = Cmax in Sprague-Dawley rat at 5 mg/kg, po measured for 24 hrs by LC-MS/MS analysis; type: ADME, organism-based; settings: in vivo
[19] = Cmax in Sprague-Dawley rat at 1.5 mg/kg, po measured for 24 hrs by LC-MS/MS analysis; type: ADME, organism-based; settings: in vivo
[20] = AUC (0 to 24 hrs) in Sprague-Dawley rat at 1.5 mg/kg, po measured for 24 hrs by LC-MS/MS analysis; type: ADME, organism-based; settings: in vivo
[21] = Drug concentration in Sprague-Dawley rat plasma at 5 mg/kg, po measured for 24 hrs by LC-MS/MS analysis; type: ADME, organism-based
[22] = Drug concentration in Sprague-Dawley rat plasma at 1.5 mg/kg, po measured for 24 hrs by LC-MS/MS analysis; type: ADME, organism-based
[23] = Drug concentration in Sprague-Dawley rat liver at 5 mg/kg, po measured for 24 hrs by LC-MS/MS analysis; type: ADME, organism-based; settings: read-out: Ct
[24] = Drug concentration in Sprague-Dawley rat liver at 1.5 mg/kg, po measured for 24 hrs by LC-MS/MS analysis; type: ADME, organism-based; settings: read-out: Ct
Rattus norvegicus [25] = assay: Antihypercholesterolemic activity against high fat diet-induced Sprague-Dawley rat model assessed as change in total cholesterol level at 1.5 mg/kg, po measured at 1 to 24 hrs post dose; type: functional; settings: time 1-24 hrs
Rattus norvegicus [26] = assay: Antihypercholesterolemic activity against high fat diet-induced Sprague-Dawley rat model assessed as change in total cholesterol level at 0.15 mg/kg, po measured at 1 to 24 hrs post dose; type: functional; settings: time 1-24 hrs
Rattus norvegicus [27] = assay: Antihypercholesterolemic activity against high fat diet-induced Sprague-Dawley rat model assessed as change in total cholesterol level at 5 mg/kg, po measured at 1 to 24 hrs post dose; type: functional; settings: time 1-24 hrs
Rattus norvegicus [28] = assay: Antihypercholesterolemic activity against high fat diet-induced Sprague-Dawley rat model assessed as change in LDL-C level at 1.5 mg/kg, po measured at 1 to 24 hrs post dose; type: functional; settings: time 1-24 hrs
Rattus norvegicus [29] = assay: Antihypercholesterolemic activity against high fat diet-induced Sprague-Dawley rat model assessed as change in LDL-C level at 0.15 mg/kg, po measured at 1 to 24 hrs post dose; type: functional; settings: time 1-24 hrs
Rattus norvegicus [30] = assay: Antihypercholesterolemic activity against high fat diet-induced Sprague-Dawley rat model assessed as change in T3 level at 1.5 mg/kg, po measured at 1 to 24 hrs post dose; type: functional; settings: time 1-24 hrs
Rattus norvegicus [31] = assay: Antihypercholesterolemic activity against high fat diet-induced Sprague-Dawley rat model assessed as change in T3 level at 0.15 mg/kg, po measured at 1 to 24 hrs post dose; type: functional; settings: time 1-24 hrs
Rattus norvegicus [32] = assay: Antihypercholesterolemic activity against high fat diet-induced Sprague-Dawley rat model assessed as change in T3 level at 5 mg/kg, po measured at 1 to 24 hrs post dose; type: functional; settings: time 1-24 hrs
Rattus norvegicus [33] = assay: Antihypercholesterolemic activity against high fat diet-induced Sprague-Dawley rat model assessed as change in LDL-C level at 5 mg/kg, po measured at 1 to 24 hrs post dose; type: functional; settings: time 1-24 hrs
Rattus norvegicus [34] = assay: Antihypercholesterolemic activity against high fat diet-induced Sprague-Dawley rat model assessed as change in T4 level at 1.5 mg/kg, po measured at 1 to 24 hrs post dose; type: functional; settings: time 1-24 hrs
Rattus norvegicus [35] = assay: Antihypercholesterolemic activity against high fat diet-induced Sprague-Dawley rat model assessed as change in T4 level at 0.15 mg/kg, po measured at 1 to 24 hrs post dose; type: functional; settings: time 1-24 hrs
Rattus norvegicus [36] = assay: Antihypercholesterolemic activity against high fat diet-induced Sprague-Dawley rat model assessed as change in T4 level at 5 mg/kg, po measured at 1 to 24 hrs post dose; type: functional; settings: time 1-24 hrs
in vitro [37] = settings: dog, cryopreserved hepatocytes
in vitro [38] = settings: cynomolgus monkey, cryopreserved hepatocytes

- inhibition at 10 µM (CYP2C8): 87%
- inhibition at 10 µM (CYP2C9): 61%
- Papp A→B at 1 h ([1]; Caco-2): 0.3 ×10⁻⁶ cm/s
- fraction unbound at 4 h, 2 µM [2]: < 0.002
- fraction unbound at 4 h, 2 µM [3]: 0.01
- half-life at 3 h, 1 µM (in vitro [4]): 1.18 h
- half-life at 3 h, 1 µM (in vitro [5]): 1.43 h
- half-life at 3 h, 1 µM (in vitro [6]): 1.72 h
Structure (SMILES): C#Cc1nn(-c2cc(Cl)c(Oc3cc(C(C)C)c(=O)[nH]n3)c(Cl)c2)c(=O)[nH]c1=O

- pIC50 [7]: 4.43
- pIC50 [8]: 4.62
Structure (SMILES): CC(C)c1cc(Oc2c(Cl)cc(-n3nc(N)c(=O)[nH]c3=O)cc2Cl)n[nH]c1=O
- pIC50 [9]: < 5.00
- pIC50 [10]: < 5.00

- pEC50 [11]: 6.52
- inhibition at 10 µM (CYP2C8): 91%
- inhibition at 10 µM (CYP2C9): 49%
- Papp ([1]; caco-2, 1 h): 0.03 10^-6 cm/s
- fraction unbound at 4 h, 2 µM [2]: 0.004
- fraction unbound at 4 h, 2 µM [12]: 0.012
- fraction unbound at 4 h, 2 µM [13]: 0.005
- fraction unbound at 4 h, 2 µM [3]: 0.003
- Kp [14]: 6.3
- Kp [15]: 6.8
- Cmax [18]: 2550 ng/mL
- Cmax [19]: 969 ng/mL
- AUC(0-t) at 24 h [20]: 9410 ng·h/mL
- concentration at 24 h [21]: 217 ng/mL
- concentration at 24 h [22]: 38.2 ng/mL
- concentration at 24 h [23]: 613 ng/g
- concentration at 24 h [24]: 73.6 ng/g
- half-life at 3 h, 1 µM (in vitro [4]): > 6 h
- half-life at 3 h, 1 µM (in vitro [5]): > 6 h
- half-life at 3 h, 1 µM (in vitro [37]): > 6 h
- half-life at 3 h, 1 µM (in vitro [38]): 1.85 h
- half-life at 3 h, 1 µM (in vitro [6]): 3.22 h
Structure (SMILES): CC(C)c1cc(Oc2c(Cl)cc(-n3nc(C#N)c(=O)[nH]c3=O)cc2Cl)n[nH]c1=O [RESMETIROM]
- Activity (Rattus norvegicus [16]): Active
- minimal effective dose (Rattus norvegicus [17]): 0.15 mg/kg
- Activity (Rattus norvegicus [25]): -25.8%
- Activity (Rattus norvegicus [26]): 9.5%
- Activity (Rattus norvegicus [27]): -34.5%
- Activity (Rattus norvegicus [28]): -34.8%
- Activity (Rattus norvegicus [29]): -0.8%
- Activity (Rattus norvegicus [30]): 1.7%
- Activity (Rattus norvegicus [31]): -4.6%
- Activity (Rattus norvegicus [32]): -1.9%
- Activity (Rattus norvegicus [33]): -44.2%
- Activity (Rattus norvegicus [34]): -15.6%
- Activity (Rattus norvegicus [35]): -18.4%
- Activity (Rattus norvegicus [36]): -15.7%
